Several values for one entry are separate records, joined by “and”; a condition that tells them apart may be missing. Identical values can stand only once.
Legend:
[1] = tested on: methicillin-resistant Staphylococcus aureus (MRSA) clinical isolates; assay: Broth microdilution MIC, clinical MRSA isolates; type: cell-based; conditions: for MRSA isolates susceptible out of those tested: 6 isolates tested, susceptible = MIC up to 40 µM; for MIC, MRSA 20 426: clinical isolate 20 426, blood, 2020; for MIC, MRSA 24 035: clinical isolate 24 035, wound; for MIC, MRSA 24 035 / MIC, MRSA 24 268 / MIC, MRSA 24 272 / MIC, MRSA 24 328 / MIC, MRSA 24 408: 2018; for MIC, MRSA 24 268: clinical isolate 24 268, throat; for MIC, MRSA 24 272: clinical isolate 24 272, throat; for MIC, MRSA 24 328: clinical isolate 24 328, throat; for MIC, MRSA 24 408: clinical isolate 24 408, bronchial
Description: (§1) The MIC values of the complexes were determined against the reference strains of S. aureus (ATCC29213) and E. faecalis. (ATCC29212) and against clinical VRE and MRSA isolates by microdilution assays (repeated at least twice in duplicates) as described in Materials and Methods. The numbers indicate how many isolates were susceptible to the compound out of those tested; i.e., 1/6 stands for 1 isolate was susceptible out of 6 tested. […] Cells were harvested and lysed. Cellular proteins was separated on a 10% SDS-PAGE gel and were blotted. Blots were probed with 4HNE antibody (top blot), the lower blot was stained with amido black. Arrows point at band of interest. Experiments were repeated three times and a representative blot is shown. On the blots brightness and contrast were adjusted. […] Each was matched to a substance and strain by its position over the x-axis categories. / Ir-7: ND and 0/3 (left plot) and ND and 0/6 (right plot) were matched to E. faecalis/VRE and S. aureus/MRSA by position only.
(§2) We used a set of clinical isloates of S. aureus and E. faecium that were collected at the Medical Center of the University of Debrecen (Hungary) between 01. 01. 2018.—31. 12. 2020. The clinical isolates were identified using a Microflex MALDI-TOF mass spectrometer (Bruker, Billerica, MA, United States). Antibiotic susceptibility of the isolates was tested following the European Committee on Antimicrobial Susceptibility Testing ([EUCAST, 2021]) guidelines valid at the time of collection.
(§3) Microdilution experiments were performed according to the standards of EUCAST ([EUCAST, 2021]). […] The inoculated plates were incubated for 24 h at 37°C then were assessed visually. […] All experiments were performed at least twice in duplicates.

[2] = tested on: A2780 ovarian cancer cells; assay: SRB assay (cytostasis, 48 h) on A2780 cells; type: cell-based; conditions: 48 h treatment
Description: (§4) First, we assessed a set of osmium complexes (similar to Ia [[Kacsir et al., 2022]) in Figure 1] and their sugar-derived ligands, in which the benzoyl protective groups on the carbohydrate moiety were replaced by aliphatic acyl groups of different chain length (straight chain C3-C7–CO). Osmium was selected as a central ion, since osmium complexes had the best biological activity in our previous studies ([Balázs et al., 2022]; [Kacsir et al., 2022]). These compounds were tested on A2780 ovarian cancer cells for toxicity and cytostasis. The therapy of ovarian cancer is centered around platinum compounds ([Brown et al., 2019]; [Sipos et al., 2021]), therefore, it was logical to use a cellular model of ovarian cancer for the initial testing of the compounds. Toxicity was assessed using the MTT assay that measures the activity of mitochondrial complex I. We chose 4 h long treatment as in an MTT assay this time point is suitable to detect rapid, direct toxicity. Cytostasis was assessed after 48 h of treatment using the SRB assay that assesses protein content that corresponds to cell count. The characteristics of the compounds are detailed in Table 2.
(§5) 3 × 10^3 A2780 cells, were plated to 96 well plates. Cells were treated with the compounds in the concentrations indicated for either 4 h for an MTT assay or for 48 h for an SRB assay. Data is represented as average ± SD, from three biological replicates; individual assays were performed in duplicates. Values were normalized for vehicle treated cells, absorbance for vehicle treated cells equals to 1. […] Except for the Os-6 complex, Two-way ANOVA test was performed and all values were compared with each other (Tukey’s post hoc test). […] Non-linear regression was performed on the data.
(§6) 3 × 10^3 A2780 cells, 2 × 10^3 ID8 cells and 4 × 10^3 primary fibroblasts were plated to 96 well plates. Cells were treated with the compounds in the concentrations indicated for either 4 h for an MTT assay or for 48 h for an SRB assay. Data is represented as average ± SD, from three biological replicates; individual assays were performed in duplicates. Values were normalized for vehicle treated cells, absorbance for vehicle treated cells equals to 1. Statistical significance was assessed using two-way ANOVA test comparing the free ligand and each complex as a complex-ligand pair. Before the test normality was assessed using the D’Agostino-Pearson test. The ID8 SRB Ir-7+L-7 dataset had lognormal distribution. […] All other datasets had normal distribution. For better visibility the p values are presented in an excel sheet at https://figshare.com/s/2c942a812caea8869a67. Non-linear regression was performed on the A2780 SRB and the ID8 SRB datasets.
The assay was performed similar to ([Kovács et al., 2019]). Cells were seeded in 96 well plates the day before the assay. Cells were treated with the compounds for 48 h. Cells were fixed with 10% trichloroacetic acid (TCA). Fixed cells were washed in distilled water 3 times followed by staining with SRB (0.4 m/V% dissolved in 1% acetic acid) for 10 min. Stained cells were washed in 1% acetic acid 5 times; acetic acid was removed and cells were left to dry. Protein-bound SRB was released by adding 100 µl 10 mM Tris base. Plates were measured in a plate photometer (Thermo Scientific Multiscan GO spectrophotometer, Waltham, MA, United States) at 540 nm. On each plate wells were designed to contain vehicle-treated cells. In calculations the readings for these wells was considered as 1 and all readings were expressed relative to these values.
Statistical analysis was performed using 8.0.1 version of Graphpad Prism. Values were tested for normal distribution using the D’Agostino and Pearson normality test. When necessary, values were log normalized or were normalized using the Box-Cox normalization method ([Box and Cox, 1964]) as indicated in the figure captions. […]

[3] = tested on: A2780 ovarian cancer cells; assay: MTT reduction assay (rapid toxicity, 4 h) on A2780 cells; type: cell-based; conditions: 4 h treatment
Description: as §4, §5, §6
MTT reduction assay measures the activity of mitochondrial complex I and can be used to detect toxicity ([Virág et al., 1998]; [Henslee et al., 2016]). The assay was performed similar to ([Bakondi et al., 2003]). Briefly, cells were plated in 96 well plates the day before the assay. Cells were treated with the compounds for 4 h, then MTT was added in 0.5 mg/ml final concentration and cells were incubated at 37°C in a cell incubator. Culture media was removed and the reduced MTT dye was dissolved in dimethyl-sulfoxide (DMSO) and plates were measured in a plate photometer (Thermo Scientific Multiscan GO spectrophotometer, Waltham, MA, United States) at 540 nm. On each plate wells were designed to contain untreated/vehicle-treated cells. In calculations the readings for these wells was considered as 1 and all readings were expressed relative to these values.

[4] = tested on: vancomycin-resistant Enterococcus (VRE) clinical isolates; assay: Broth microdilution MIC, clinical VRE isolates; type: cell-based, E. faecium; conditions: for VRE isolates susceptible out of those tested: 3 isolates tested, susceptible = MIC up to 40 µM; for MIC, VRE 25 051: clinical isolate 25 051, nephrostoma; for MIC, VRE 25 051 / MIC, VRE 25 498 / MIC, VRE 27 085: 2018; for MIC, VRE 25 498: clinical isolate 25 498, rectal swab; for MIC, VRE 27 085: clinical isolate 27 085, wound
Description: as §1, §2, §3

[5] = Determination of the distribution coefficients (logD); type: physicochemical; conditions: distribution coefficient
[6] = tested on: Staphylococcus aureus (ATCC29213); assay: Broth microdilution MIC, Staphylococcus aureus reference strain; type: cell-based; conditions: for MIC, Reference S. aureus: Staphylococcus aureus ATCC29213, 24 h; for MIC (μM) (S. aureus), Figure 11: reference strain ATCC29213
Description: as §1
(§7) We used the reference strains of Staphylococcus aureus (ATCC29213), and Enterococcus faecalis (ATCC29212) that were purchased from ATCC (Manassas, VA, United States).
as §3

[7] = tested on: Enterococcus faecalis (ATCC29212); assay: Broth microdilution MIC, Enterococcus faecalis reference strain; type: cell-based; conditions: for MIC, Reference E. faecalis: Enterococcus faecalis ATCC29212, 24 h
Description: as §1, §7, §3

Structure (SMILES)	MRSA isolates susceptible out of those tested [1]	MIC, MRSA 20 426 [1]	MIC, MRSA 24 035 [1]	MIC, MRSA 24 268 [1]	MIC, MRSA 24 272 [1]	MIC, MRSA 24 328 [1]	MIC, MRSA 24 408 [1]	A2780 SRB Max. (maximal inhibition) [2]	IC50 [2]	A2780 MTT Max. (maximal inhibition) [3]	VRE isolates susceptible out of those tested [4]	MIC, VRE 25 051 [4]	MIC, VRE 25 498 [4]	MIC, VRE 27 085 [4]	LogD [5]	MIC, Reference S. aureus [6]	MIC, Reference E. faecalis [7]	further results
CCCC(=O)OCC1OC(n2cc(-c3ccccn3)nn2)C(OC(=O)CCC)C(OC(=O)CCC)C1OC(=O)CCC.Cc1ccc(C(C)C)cc1.F[P-](F)(F)(F)(F)F.[Cl][Os+] (mixture of isomers) [Os-2]	6/6	2.5 µM	2.5 µM	5 µM	5 µM	2.5 µM	5 µM	>90%	6.23 µM	88%	3/3	10 µM	10 µM	10 µM	2.5	2.5—10 µM and 2.5 µM		
CCCCC(=O)OCC1OC(n2cc(-c3ccccn3)nn2)C(OC(=O)CCCC)C(OC(=O)CCCC)C1OC(=O)CCCC.Cc1ccc(C(C)C)cc1.F[P-](F)(F)(F)(F)F.[Cl][Os+] (mixture of isomers) [Os-3]	6/6	5 µM	2.5 µM	2.5 µM	5 µM	2.5 µM	5 µM	>90%	2.1 µM	84.4%	3/3	5 µM	5 µM	5 µM	2.6	2.5—10 µM and 2.5 µM	2.5—10 µM and 5 µM	
CCCCCC(=O)OCC1OC(n2cc(-c3ccccn3)nn2)C(OC(=O)CCCCC)C(OC(=O)CCCCC)C1OC(=O)CCCCC.Cc1ccc(C(C)C)cc1.F[P-](F)(F)(F)(F)F.[Cl][Os+] (mixture of isomers) [Os-4]	1/6	40< µM	40< µM	40< µM	40< µM	40< µM	40 µM	>90%	3.87 µM	84.4%	3/3	40 µM	40 µM	40 µM	2.7	40< µM	40 µM	MIC (μM) (S. aureus), Figure 11 [6]: ND (ND—not detected, MIC>40 µM)
CCCCCCC(=O)OCC1OC(n2cc(-c3ccccn3)nn2)C(OC(=O)CCCCCC)C(OC(=O)CCCCCC)C1OC(=O)CCCCCC.Cc1ccc(C(C)C)cc1.F[P-](F)(F)(F)(F)F.[Cl][Os+] (mixture of isomers) [Os-5]	0/6	40< µM	40< µM	40< µM	40< µM	40< µM	40< µM	>90%	15.9 µM	83.4%	0/3	40< µM	40< µM	40< µM	2.7	40< µM	40< µM	MIC against clinical MRSA isolates (as a group) ([1]; 6 clinical MRSA isolates): > 40 µM; MIC (μM) (E. faecalis), Figure 11 ([7]; reference strain ATCC29212, printed in the picture): ND (ND—not detected, MIC>40 µM); MIC against clinical VRE isolates (as a group) ([4]; 3 clinical VRE isolates): > 40 µM; MIC (μM) (S. aureus), Figure 11 [6]: ND (ND—not detected, MIC>40 µM)
CCCC(=O)OC[C@H]1O[C@@H](n2cc(-c3ccccn3)nn2)[C@H](OC(=O)CCC)[C@@H](OC(=O)CCC)[C@@H]1OC(=O)CCC [L-2]								21.2%										
CCCCC(=O)OC[C@H]1O[C@@H](n2cc(-c3ccccn3)nn2)[C@H](OC(=O)CCCC)[C@@H](OC(=O)CCCC)[C@@H]1OC(=O)CCCC [L-3]								32.0%										
CCCCCC(=O)OC[C@H]1O[C@@H](n2cc(-c3ccccn3)nn2)[C@H](OC(=O)CCCCC)[C@@H](OC(=O)CCCCC)[C@@H]1OC(=O)CCCCC [L-4]								26.9%										
CCCCCCC(=O)OC[C@H]1O[C@@H](n2cc(-c3ccccn3)nn2)[C@H](OC(=O)CCCCCC)[C@@H](OC(=O)CCCCCC)[C@@H]1OC(=O)CCCCCC [L-5]								28.5%										
O=C(OC[C@H]1O[C@@H](n2cc(-c3ccc4ccccc4n3)nn2)[C@H](OC(=O)c2ccccc2)[C@@H](OC(=O)c2ccccc2)[C@@H]1OC(=O)c1ccccc1)c1ccccc1 [L-7, 1-(2’,3’,4’,6’-tetra-O-benzoyl-β-D-glucopyranosyl)-4-(quinolin-2-yl)-1,2,3,-triazole]								16.9%										

Source: publication PMC9923724, “Half sandwich-type osmium, ruthenium, iridium and rhodium complexes with bidentate glycosyl heterocyclic ligands induce cytostasis in platinum-resistant ovarian cancer cells and bacteriostasis in Gram-positive multiresistant bacteria” (Frontiers in Chemistry, 2023)
